Data published in patent US20180353429A1, “PRODUCT COMPRISING HYDROLIZED COLLAGEN AND AT LEAST ONE AMORPHOUS MICRONIZED DRUG, PROCESS FOR THE PREPARATION THEREOF AND RELATED USES IN MEDICAL FIELD” (S.B.M. S.r.l., priority 2015, published 2018).
Where two headings read alike, the source gives them in different places.

Legend:
[1] = system: gastric mucosa; assay: Gastroerosive activity of oral ASA on the gastric mucosa of Wistar rats (ulcer index, histopathology); format: in vivo; settings: ASA 400 mg/Kg oral
Description: In view of this, it was decided to test the effect of the micronization of ASA (400 mg/Kg) and co-grinding thereof with collagen through oral administration on the mucosa of Wistar rats weighing 210 g and compare it with the effects of the administration of ASA (400 mg/Kg) in its non-micronized form.
In particular, a calculation was made of the effect of ASA on the so-called “ulcer score”, according to a method that differentiates the damage due to the acute administration of high doses of ASA given orally into classes of severity which range from the absence of lesions to the maximum score, which is equivalent to ulcers equal to or greater than 6 mm. Furthermore, an analysis was made of the effects of ASA, in the two formulations used, on the histopathological damage of the gastric mucosa after periodic acid Schiff/Alcian blue staining of the histological samples taken from the animals after the two treatments (FIG. 7).

[2] = Pharmacokinetics of ASA given orally or sublingually in healthy volunteers (plasma ASA by LC-MS); format: in vivo; settings: human, tablet; for AUC(0-t): read-out: AUC (0-24 h)
Description: The pharmaceutical composition obtained by co-grinding a micronized drug with gelatine was tested in healthy volunteers in order to verify whether the product, in its amorphized form, brought advantages from the standpoint of bioavailability and an enhanced clinical effectiveness associated with an improvement in the safety profile. These tests confirmed that the co-grinding process and simultaneous amorphization of ASA with collagen enables a better absorption of the drug without compromising its effectiveness.
In particular, the administration of the pharmaceutical composition of ASA+collagen after co-grinding in tablet form at doses of 50 and 100 mg given sublingually and orally in groups of 20 healthy volunteers brought about an increase in the plasma concentrations of ASA, determined using the LC-MS method, compared to the administration of equivalent doses of ASA in crystalline form administered sublingually or orally.

[3] = amorphized by co-grinding with β-cyclodextrin or other polymers; cited from earlier work
[4] = system: thromboxane B2; assay: Plasma thromboxane B2 / urinary thromboxane metabolites after ASA in healthy volunteers; format: in vivo; settings: plasma and urine ASA and urinary thromboxane metabolites, 7 days
Description: This effect was accompanied by a considerable therapeutic effectiveness, given that the plasma peak of thromboxane B2, a biomarker of the anti-aggregation effectiveness of ASA, came 1.5 hours earlier than with the crystalline form of the drug (FIG. 4). […] This fact was confirmed by examining both the plasma and urine concentrations of ASA and of the urinary metabolites of thromboxane after 7 days of administration (FIG. 5).

CC(=O)Oc1ccccc1C(=O)O [ASA n.m., acetylsalicylic acid]
Ulcer index ([1]; listed as NM-ASA): 36.12 ± 4.2
Ulcer index ([1]; listed as non-micronized ASA): 36.12±4.2
histopathological damage of the gastric mucosa ([1]; periodic acid Schiff/Alcian blue staining): degeneration of cells of the gastric mucosa
Cmax ([2]; ASA 50 mg oral): 269 ± 85.4 ng/mL
AUC(0-t) ([2]; ASA 50 mg oral): 532 ± 123 ng·h/mL
Cmax ([2]; ASA 50 mg sublingual): 314 ± 89.5 ng/mL
AUC(0-t) ([2]; ASA 50 mg sublingual): 675 ± 75.6 ng·h/mL
Cmax ([2]; ASA 100 mg oral): 460 ± 73.2 ng/mL
Cmax ([2]; ASA 100 mg sublingual): 543 ± 68.3 ng/mL

CC(=O)[O][Pt]([NH2])([Cl])([Cl])([NH]C1CCCCC1)[O]C(C)=O [JM216, bis-acetato-ammine-dichloro-cyclohexylamine-platinum (IV)]
water solubility [3]: greater water solubility

collagen
effects of collagen on its own [4]: no significant effects
